Test results published in patent US9499570B2, “Boron containing small molecules” (priority 2010, dated 2016).
“Also recorded” adds a separate entry of the source.

Tests used:
[1] = tested on: Brugia malayi; test: Brugia malayi in vitro assay, adult female worms; conditions: 50 uM
Description: Adult female worms are shipped from TRS Labs Inc. (Nonglak Supakorndej, Lab Director, 295 Research Dr., Athens, Ga. 30605; 706-549-0764) via Fed Ex. Individual worms are shipped in 2 mls vials with RPMI on Mondays and arrive at the […] Center lab on Tuesday mornings. Individual worms are poured into each well (24-well tissue culture plates) to avoid handling worms since they are very delicate and easily broken. Transport media is removed and replaced with 0.5 mls of RPMI-1640 (25 mM HEPES, 2 g/L NaHCO3, Antibiotic/Antimycotic, 5% HI FBS). Worms are maintained in a 37° C. 5% CO2 incubator. Compounds are added directly to each duplicate well (5 ul of 5 mM for a final concentration of 50 uM). DMSO (5 ul) is used as a negative control and Ivermectin (Sigma) is used as a positive control at 100 uM/well and 20 uM/well. Adult filarial nematodes can shed/give birth to microfilarial worms (mf) during the course of the assay. Wells were reviewed for the presence of mf, and the viability of mf, by visual observation of the well on the last day of observation (Day 7). Plates are examined once a day for 4-7 days. […] If changes are observed, worms are more closely examined under a dissecting microscope.

[2] = tested on: Schistosoma mansoni schistosomula; test: Schistosoma mansoni schistosomula phenotype screen in vitro; conditions: for Schistosomula (juvenile infective form) worm screen phenotype 24 h / Schistosomula (juvenile infective form) worm screen phenotype 2 d / Schistosomula (juvenile infective form) worm screen phenotype 3 d / Schistosomula (juvenile infective form) worm screen phenotype 4 d: Second Set, 5 uM; for Phenotypes caused by positive control compounds: schistosomula
Description: (§1) Puerto Rican isolates of S. mansoni using Biomphalaria glabrata snails and golden hamsters as intermediate and definitive hosts, respectively, were maintained and handled in the University of California-San Francisco Sandler Center for Tropical Medicine. Patent B. glabrata snails (6-8 weeks after exposure to 5-10 infectious miracidia) were induced to shed infective larvae (cercariae) under light stimulus into the surrounding water. Cercariae were washed in rounds of ice-cold water and concentrated through and over sieves of varying pore sizes. They were then mechanically sheared (separation of heads from tails) as described in Colley D G, et al. Exp Parasitol 1974, 35:44-51, in ice-cold Incomplete Medium 169 (as described in Basch P F. J Parasitol 1981, 67:179-185, minus FBS and antibiotics) by passing 15 times through a double headed 22-gauge syringe needle connected to two 10 mL syringes. The resulting cercarial heads (schistosomula) were separated from their tails by swirling in a petri dish. Concentrated schistosomula were added to a sterile 1.5 mL centrifuge tube and allowed to settle over ice. Schistosomula were transferred to a sterile environment and washed 4 times in Incomplete Medium 169 prior to plating.
(§2) Two sets of screening were performed. In the first set, compounds were screened against schistosomula and observations were made at 24 hours, 2 days, 3 days, 4 days, and 6 days. In the second set, compounds were screened against schistosomula with observations at 24 hours, 2 days, 3 days, and 4 days and adult worms at 7 hours, 24 hours, 4 days, and 6 days.
Plates contain 200 schistosomula/well in […] complete Basch medium and were maintained at 37° C. in a 5% CO2 atmosphere. All compounds were tested in duplicate with at least two experimental replicates. Compounds and control compounds were added to the plates using the Biomek FXp using 96-well disposable tips. Final concentration of DMSO in each well was 0.5%.
(§3) A semi-quantitative and controlled nomenclature for phenotypes that can arise as a result of compound insult to both schistosomula and adults was utilized (Abdulla M H, et al., PLoS Negl Trop Dis 2009, 3:e478). Phenotypes were recorded by visual inspection and on a flexible time basis but at least at 24 h and 4 day time-points in the case of large scale screening. […] To help eliminate bias, two screen analysts scored phenotypes ‘blind’ both to knowledge of the contents of each screening plate and the phenotypes scored by his/her colleague. Upon completing their individual assessments, each analyst's ‘hit sheet’ was then compared to derive a ‘consensus hit sheet’. Discrepancies in analysts' hit sheets were re-evaluated under the microscope to eventually make a consensus hit call.
(§4) Hyper-coiled and coiled represent a verbal description of the visual phenotype as compared to the DMSO control. The + and ++ and +++ means more of the phenotype which preceded it. The − means less of the phenotype which preceded it. Results

[3] = tested on: Schistosoma mansoni adult worms; test: Schistosoma mansoni adult worm phenotype screen in vitro; conditions: for Adult worm screen phenotype 7 h / Adult worm screen phenotype 24 h / Adult worm screen phenotype 4 d / Adult worm screen phenotype 6 d*: Second Set, 5 uM; for Phenotypes caused by positive control compounds: adult worms
Description: as §1, §2
Given the delicacy and size (0.5-1.5 cm in length) of this stage all operations were performed manually by the Sandler Center. 24-well plates were set up with compound (final DMSO concentration=0.5%) containing approximately 5 pairs of worms (S. mansoni has separate sexes) in 2 mL complete Basch medium per well. Plates were maintained at 37° C. in a 5% CO2 atmosphere. All compounds were tested in duplicate with at least two experimental replicates.
as §3, §4

[4] = listed as 6-(1-Hydroxy-1,3-dihydro-benzo[c][1,2]oxaborol-5-yloxy)-2-(4-oxo-pentyloxy)-5-ch

Compound	Presence and viability of microfilarial worms (mf) Day 7 ([1]; trial one)	Worm activity / phenotype Day 1 ([1]; trial one)	Worm activity / phenotype Day 7 ([1]; trial one)	Presence and viability of microfilarial worms (mf) Day 7 ([1]; trial two)	Worm activity / phenotype Day 1 ([1]; trial two)	Worm activity / phenotype Day 2 ([1]; trial two)	Worm activity / phenotype Day 7 ([1]; trial two)	Adult worm screen phenotype 6 d* [3]	Phenotypes caused by positive control compounds [2]	Phenotypes caused by positive control compounds [3]	further results
CC(C)OCCOc1nc(Oc2ccc3c(c2)COB3O)ccc1C#N [6-(1-hydroxy-1,3-dihydrobenzo[c][1,2]oxaborol-5-yloxy)-2-(4-isopropoxyethoxy)nicotinonitrile]	mf and alive	hyper-; also recorded: coiled	0, and coiled	no mf and obs	hyper-; also recorded: coiled	hyper-; also recorded: coiled	0, and coiled	–	–	–	Worm activity / phenotype Day 3 ([1]; trial one): hyper-; also recorded: coiled; Worm activity / phenotype Day 3 ([1]; trial two): 4 (4=highly active (controls))
CC(=O)CCCOc1nc(Oc2ccc3c(c2)COB3O)ccc1C#N [D141, 6-(1-hydroxy-1,3-dihydrobenzo[c][1,2]oxaborol-5-yloxy)-2-(4-oxopentyloxy) nicotinonitrile, reference compound]	–	–	–	–	–	–	–	Dark, S,; also recorded: Partial D (Partial D=partial killing of worm population)	–	–	Schistosomula (juvenile infective form) worm screen phenotype 24 h [2]: R, O++,; also recorded: some deg-m; Schistosomula (juvenile infective form) worm screen phenotype 2 d [2]: O+++, and R−, and some and deg-M; Schistosomula (juvenile infective form) worm screen phenotype 3 d [2]: O+++, R, and some and deg-M; Schistosomula (juvenile infective form) worm screen phenotype 4 d [2]: O+++, R,; also recorded: some deg-M; Adult worm screen phenotype 7 h [3]: O++, and Sex sep (Sex sep=worm pairs have separated) and (violent and motion); Adult worm screen phenotype 24 h [3]: O++, Sex; also recorded: sep (violent; also recorded: motion); Adult worm screen phenotype 4 d [3]: O++, sex; also recorded: sep on sides,; also recorded: males dark
CC(=O)CCCOc1nc(Oc2ccc3c(c2)COB3O)c(Cl)cc1C#N [D231, 5-Chloro-6-(1-hydroxy-1,3-dihydrobenzo[c][1,2]oxaborol-5-yloxy)-2-(4-oxopentyloxy)nicotinonitrile]	no mf and obs	hyper-; also recorded: coiled	0, and coiled	no mf and obs	hyper-; also recorded: coiled	hyper-; also recorded: coiled	0, and coiled	Dark, S	–	–	Worm activity / phenotype Day 2 ([1]; trial one): hyper-; also recorded: coiled; Schistosomula (juvenile infective form) worm screen phenotype 24 h [2, 4]: R, O++,; also recorded: some deg-m; Schistosomula (juvenile infective form) worm screen phenotype 2 d [2, 4]: O++, and R−, and more and deg-M; Schistosomula (juvenile infective form) worm screen phenotype 3 d [2, 4]: O++, R−,; also recorded: more deg-M; Schistosomula (juvenile infective form) worm screen phenotype 4 d [2, 4]: O++, R−,; also recorded: more deg-M; Adult worm screen phenotype 7 h [3, 4]: O+++,; also recorded: Sex sep (Sex sep=worm pairs have separated); also recorded: (violent; also recorded: motion); Adult worm screen phenotype 24 h [3, 4]: O+++, Sex; also recorded: sep (violent; also recorded: motion); Adult worm screen phenotype 4 d [3, 4]: O++, sex; also recorded: sep on sides,; also recorded: males dark
O=C(C1CCCCC1)N1CC(=O)N2CCc3ccccc3C2C1 (stereo not drawn) [PZQ, reference compound]	–	–	–	–	–	–	–	–	dose-dependent, rapid and severe phenotypes	dose-dependent, rapid and severe phenotypes	–
O=C(Nc1ccc([N+](=O)[O-])cc1Cl)c1cc(Cl)ccc1O [niclosamide, reference compound]	–	–	–	–	–	–	–	–	dose-dependent, rapid and severe phenotypes	dose-dependent, rapid and severe phenotypes	–
O=C(Nc1ccc(Oc2ccc(Cl)cc2)c(Cl)c1)c1cc(I)cc(I)c1O [rafoxanide, reference compound]	–	–	–	–	–	–	–	–	dose-dependent, rapid and severe phenotypes	dose-dependent, rapid and severe phenotypes	–
